According to patent US5100880A, “Novel betalactam elastase inhibitors containing phosphorous acid derivatives at the 4-position of the 2-azetidinone” (Merck & Co., Inc., priority 1991, dated 1992):

Target: T1, human granulocyte elastase (Homo sapiens, UniProt P08246)
T1 construct: Crude extract of human polymorphonuclear leukocytes (PMN) containing elastase activity; endogenous in cells; host or cells: human polymorphonuclear leukocytes (PMN), crude extract
T1 sequence (P08246 30-247 limits assumed): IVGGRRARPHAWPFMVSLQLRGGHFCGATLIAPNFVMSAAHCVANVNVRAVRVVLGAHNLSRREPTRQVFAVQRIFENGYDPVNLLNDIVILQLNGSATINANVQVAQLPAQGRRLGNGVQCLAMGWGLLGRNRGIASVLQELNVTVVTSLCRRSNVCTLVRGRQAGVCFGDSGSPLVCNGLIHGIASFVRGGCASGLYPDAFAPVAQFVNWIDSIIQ
Assay: Inhibition of human polymorphonuclear leukocyte elastase via hydrolysis of Boc-AAPAN or Boc-AAPVN
Assay type: biochemical
Conditions: crude extract of human PMN; 0.05M TES buffer pH 7.5; substrate 0.2 mM Boc-AAPAN or Boc-AAPVN; read-out: kobs /I, second order rate constant for inactivation of the enzyme
Description: Enzyme Assays for the Inhibition of Human Polymorphonuclear Leukocyte Elastase Via Hydrolysis of N-t-Boc-alanyl-alanyl-prolylalanine-p-nitroanilide (Boc-AAPAN) or N-t-Boc-alanyl-prolylvaline-p-nitroanilide (Boc-AAPVN) Reagent
0.05M TES (N-tris[hydroxymethyl]methyl-2-amino-ethanesulfonic acid) Buffer, pH 7.5.
0.2 mM Boc-AAPAN or Boc-AAPVN.
To prepare substrate, the solid was first dissolved in 10.0 ml DMSO. Buffer at pH 7.5 was then added to a final volume of 100 ml.
Crude extract of human polymorphonuclear leukocytes (PMN) containing elastase activity.
Inhibitors (azetidinones) to be tested dissolved in DMSO just before use.
To 1.0 ml of 0.2 mM Boc-AAPAN in a cuvette, 0.01-0.1 ml of DMSO with or without inhibitor was added. After mixing, a measurement was taken at 410 mμ to detect any spontaneous hydrolysis due to presence of test compound. 0.05 Milliliters of PMN extract was then added and the ΔOD/min at 410 mμ was measured and recorded. Beckman model 35 spectrophotometer was used.
Results are also expressed as Ki, the micromolar concentration of the inhibitor (μM) giving 50% of the control enzyme activity; or as ^k obs/I which is the second order rate constant in per mole per second for inactivation of the enzyme.
The elastase activity in the crude PMN extract may vary from one preparation to another. […]

SMILES | kinact/KI
CCCC(NC(=O)N1C(=O)C(CC)(CC)C1Oc1ccc(CP(=O)(O)O)cc1)c1ccc(C)cc1 [Example 2, (4S)-3,3-Diethyl-1-[(R)-α-n-propyl-(4-methyl)-benzylaminocarbonyl)]-4-[4-(dihydroxyphosphinylmethyl)phenoxy]-azetidin-2-one] | 220000 M⁻¹ s⁻¹
CCCC(NC(=O)N1C(=O)C(CC)(CC)C1Oc1ccc(CP(=O)(OCC)OCC)cc1)c1ccc(C)cc1 [Example 1, (4S)-3,3-Diethyl-1-[(R)-α-n-propyl(4-methyl)-benzylaminocarbonyl)]-4-[4-(diethoxyphosphinylmethyl)-phenoxy]-azetidin-2-one] | 1.2e+06 M⁻¹ s⁻¹
